The text below walks through data of PMC11085872, “Structure-Based Design of Novel Thiazolone[3,2-a]pyrimidine Derivatives as Potent RNase H Inhibitors for HIV Therapy” (Molecules, 2024).

For data set [1], the target named is T1, HIV-1 RT-associated RNase H (Human immunodeficiency virus type 1 group M subtype B, UniProt P03366).
T1 construct: His-tagged p66/p51 HIV-1 RT group M subtype B; His tag; made in house; host or cells: Escherichia coli strain M15 (plasmid p6HRT-prot)
The experiment in a line: RNase H polymerase-independent cleavage assay. Type of data set: biochemical. The note with it: recombinant HIV-1 wt RT, hybrid RNA/DNA substrate, 37 °C, 1 hour; for IC50: IC50, compound concentration required to reduce HIV-1 RT-associated RNase H activity by 50%. How it is done: The Ar^1 and Ar^2 aromatic segments of the molecule also approach the protein surface, through hydrophobic interactions. These findings provide important information for further structural optimization. All these newly designed thiazolone[3,2-a]pyrimidine derivatives were evaluated for their inhibitory activity against HIV RT-associated RNase H, using the diketo acid RDS1643 as positive control. […] The decrease in activity observed in compounds containing a sulfonic acid group might be attributed to the excessively strong acidity of the sulfonic acid group, which could protonate the diazo group within the molecule. […] When Ar^2 was changed from a phenyl group to a naphthyl group, the activity of compound 10f gained a great improvement over that of compound 10k. […] And when a negatively charged polar group was present at the 2-position of Ar^2, the inhibitory activity is enhanced. […]
3. Biology Experimental section
3.1 Expression and purification of recombinant HIV-1 RTs.
His-tagged p66/p51 HIV-1 RT group M subtype B coded in a p6HRT-prot plasmid was expressed in the Escherichia coli strain M15.1 Heterodimeric RTs were expressed essentially and purified as described.2 E. coli cells harboring the expression vector were cultured until reaching an optical density at 600 nm of 0.7. Induction of protein expression was achieved by treating the cells with 1.7 mM isopropyl β-D-1-thiogalactopyranoside (IPTG) for a duration of 4 hours. The subsequent purification of the protein was performed using a BioLogic LP system (BioRad) employing a combination of immobilized metal affinity chromatography and ion exchange […]
To initiate the purification process, the cell pellets were resuspended in lysis buffer at a ratio of 1:2 (cell pellet volume: lysis buffer volume). The lysis buffer used consisted of 50 mM sodium phosphate buffer with a pH of 7.8, supplemented with 0.5 mg/ml lysozyme. The resuspended cells were incubated on ice for 20 minutes. Following this, NaCl was added to achieve a final concentration of 0.3 M. The cells were then subjected to sonication, with four cycles of 60 seconds each, alternating between one second on and one second off. Subsequently, the cell lysate was centrifuged at 30, 000×g for 1 […]
The supernatant obtained from the centrifugation step was loaded onto a Ni2+-NTA-Sepharose column that had been pre-equilibrated with a loading buffer consisting of 50 mM sodium phosphate buffer (pH 7.8), 0.3 M NaCl, 10% glycerol, and 10 mM imidazole. The column was washed with a buffer containing 50 mM sodium phosphate buffer (pH 6.0), 0.3 M NaCl, 10% glycerol, and 80 mM imidazole. The target protein, RT, was eluted using an imidazole gradient ranging from 0.08 M to 0.5 M in the wash buffer. Fractions containing the enzyme were collected and combined, and then diluted 1:1 with 50 mM sodium phosphate buffer (pH 7.0) containing 10% glycerol. The diluted protein sample was loaded onto a Hi-trap heparin HP column that had been pre-equilibrated with 10 column volumes of a loading buffer consisting of 50 mM sodium phosphate buffer (pH 7.0), 10% glycerol, and 150 mM NaCl. The column was washed with the loading buffer, and the RT enzyme was eluted using Elute Buffer 2, which
(1 picture or pasted object on this page, not shown here) […]
comprised 50 mM sodium phosphate buffer (pH 7.0), 10% glycerol, and 1 M NaCl.
The eluted fractions containing the purified protein were collected, and the protein was subsequently dialyzed and stored in a buffer composed of 50 mM Tris-HCl (pH 7.0), 25 mM NaCl, 1 mM EDTA, and 50% glycerol. The catalytic activities of the purified protein samples were determined, and aliquots were stored at -80 °C for further use.
3.2 RNase H Polymerase-Independent Cleavage Assay
The HIV-1 RT-associated RNase H activity was measured as described.3 In summary, the reaction was performed in a black 96-well plate with a total volume of 100 μL. The reaction mix consisted of 50 mM Tris HCl (pH 7.8), 6 mM MgCl2, 1 mM dithiothreitol […]

One may read the IC50 as the concentration that inhibits the measured activity by half. What is called melting point is the temperature of the solid-liquid transition.

`COC(=O)C1=C(C)N=C2SC(=NNc3cccc(C(C)=O)c3)C(=O)N2C1c1ccccc1` (centres unmarked) [Compound 10m, Methyl 2-(2-(3-acetylphenyl)hydrazineylidene)-7-methyl-3-oxo-5-phenyl-2,3-dihydro-5H-thiazolo[3,2-a]pyrimidine-6-carboxylate] yielded a melting point of 213 to 216 °C. Besides, the IC50 in data set [1] was found to be 18.4 ± 0.79 µM.
The like results for `COC(=O)C1=C(C)N=C2SC(=NNc3ccccc3OC)C(=O)N2C1c1ccccc1` (centres unmarked) [Compound 10i, Methyl 2-(2-(2-methoxyphenyl)hydrazineylidene)-7-methyl-3-oxo-5-phenyl-2,3-dihydro-5H-thiazolo[3,2-a]pyrimidine-6-carboxylate] were, in that order, 189 to 192 °C and 8.32 ± 0.06 µM.
Molecule `COC(=O)C1=C(C)N=C2SC(=NNc3ccc(OC)c(OC)c3)C(=O)N2C1c1ccccc1` (centres unmarked) [Compound 10h, Methyl 2-(2-(3,4-dimethoxyphenyl)hydrazineylidene)-7-methyl-3-oxo-5-phenyl-2,3-dihydro-5H-thiazolo[3,2-a]pyrimidine-6-carboxylate] had a melting point of 204 to 206 °C. For the same molecule, the IC50 in data set [1] worked out at 14.4 ± 1.23 µM.
The molecule `COC(=O)C1=C(C)N=C2SC(=NNc3cccc(C(=O)OC)c3)C(=O)N2C1c1ccc(OC)c(OC)c1OC` (centres unmarked) [Compound 11j, Methyl 2-(2-(3-(methoxycarbonyl)phenyl)hydrazineylidene)-7-methyl-3-oxo-5-(2,3,4-trimethoxyphenyl)-2,3-dihydro-5H-thiazolo[3,2-a]pyrimidine-6-carboxylate] yielded a melting point of 213 to 215 °C. For the same molecule, in data set [1], the IC50 was 42.1 ± 9.78 µM.
As for `COC(=O)C1=C(C)N=C2SC(=NNc3cc(OC)c(OC)c(OC)c3)C(=O)N2C1c1ccccc1` (centres unmarked) [Compound 10c, Methyl 7-methyl-3-oxo-5-phenyl-2-(2-(3,4,5-trimethoxyphenyl)hydrazineylidene)-2,3-dihydro-5H-thiazolo[3,2-a]pyrimidine-6-carboxylate], the melting point fell in the range of 211 to 213 °C. In addition, the IC50 in data set [1] stood at 24.4 ± 1.25 µM.
Molecule `COC(=O)C1=C(C)N=C2S/C(=N\Nc3ccc4ccccc4c3S(=O)(=O)O)C(=O)N2C1c1ccc(OC)c(OC)c1OC` (centres unmarked) [Compound 11g, (2-(6-(Methoxycarbonyl)-7-methyl-3-oxo-5-(2,3,4-trimethoxyphenyl)-5H-thiazolo[3,2-a]pyrimidin-2(3H)-ylidene)hydrazineyl)naphthalene-1-sulfonic acid] came in with a melting point of 241 to 244 °C.
Molecule `COC(=O)C1=C(C)N=C2SC(=NNc3ccccc3C(=O)OC)C(=O)N2C1c1ccc(OC)c(OC)c1OC` (centres unmarked) [Compound 11h, Methyl 2-(2-(2-(methoxycarbonyl)phenyl)hydrazineylidene)-7-methyl-3-oxo-5-(2,3,4-trimethoxyphenyl)-2,3-dihydro-5H-thiazolo[3,2-a]pyrimidine-6-carboxylate] registered a melting point of 200 to 202 °C. For the same molecule, the IC50 in data set [1] turned out to be 10 ± 0.95 µM.
In the case of `COC(=O)C1=C(C)N=C2SC(=NNc3cccc([N+](=O)[O-])c3)C(=O)N2C1c1ccccc1` (centres unmarked) [Compound 10l, Methyl 7-methyl-2-(2-(3-nitrophenyl)hydrazineylidene)-3-oxo-5-phenyl-2,3-dihydro-5H-thiazolo[3,2-a]pyrimidine-6-carboxylate], the melting point lay within 250 to 252 °C. For the same molecule, the IC50 in data set [1] is 6.41 ± 0.24 µM.
`COC(=O)C1=C(C)N=C2S/C(=N\Nc3ccc4ccccc4c3S(=O)(=O)O)C(=O)N2C1c1ccc(OC)cc1` (centres unmarked) [Compound 12f] showed a melting point of 271 to 273 °C. Moreover, in data set [1], the IC50 turned out to be 3.28 µM.
As for `CCOC(=O)C(=O)CC(=O)/C=C/c1cccn1Cc1ccc(F)cc1` [RDS1643, reference compound], the “IC50, compound concentration required to reduce HIV-1 RT-associated RNase H activity by 50%” value in data set [1] is 8.6 ± 1.30 µM.
The molecule `COC(=O)C1=C(C)N=C2SC(=NNc3ccc(OC)cc3S(=O)(=O)O)C(=O)N2C1c1ccccc1` (centres unmarked) [Compound 10e, 5-Methoxy-2-(2-(6-(methoxycarbonyl)-7-methyl-3-oxo-5-phenyl-5H-thiazolo[3,2-a]pyrimidin-2(3H)-ylidene)hydrazineyl)benzenesulfonic acid] came in with a melting point of 247 to 249 °C. Further, the IC50 in data set [1] was determined as 58.4 ± 1.71 µM.
